In PubChem BioAssay AID2060884 (Molecular Pharmacology Branch, DTP, NCI, 2025):

Test system: NCI-H929 complex spheroids, viability % test/control
Assay: Anticancer human tumor NCI-H929 cell line growth inhibition [RAS];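 also: compound exposure lasted seven days before viability was read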;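 as to viability, T/C: 100% = DMSO vehicle control viability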
Details: for IC50: curve of first compound; for viability, T/C: stronger effect = lower value
How it was run: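 Tumour cells grown as complex spheroids with HUVEC endothelial cells and mesenchymal stem cells, treated with RAS pathway inhibitor combinations. Each agent spans half-log steps from near clinical Cmax, or 10 microM where Cmax is unknown.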

[1] = second compound 0.000949 µM, first compound 0.0316 µM
[2] = second compound 0.000949 µM, first compound 0.1 µM
[3] = second compound 0.000949 µM, first compound 0.316 µM
[4] = second compound 0.000949 µM, first compound 1 µM
[5] = second compound 0.003 µM, first compound 0.0316 µM
[6] = second compound 0.003 µM, first compound 0.1 µM
[7] = second compound 0.003 µM, first compound 0.316 µM
[8] = second compound 0.003 µM, first compound 1 µM
[9] = second compound 0.00949 µM, first compound 0.0316 µM
[10] = second compound 0.00949 µM, first compound 0.1 µM
[11] = second compound 0.00949 µM, first compound 0.316 µM
[12] = second compound 0.00949 µM, first compound 1 µM
[13] = second compound 0.03 µM, first compound 0.0316 µM
[14] = second compound 0.03 µM, first compound 0.1 µM
[15] = second compound 0.03 µM, first compound 0.316 µM
[16] = second compound 0.03 µM, first compound 1 µM
[17] = second compound 0.0949 µM, first compound 0.0316 µM
[18] = second compound 0.0949 µM, first compound 0.1 µM
[19] = second compound 0.0949 µM, first compound 0.316 µM
[20] = second compound 0.0949 µM, first compound 1 µM
[21] = second compound 0.3 µM, first compound 0.0316 µM
[22] = second compound 0.3 µM, first compound 0.1 µM
[23] = second compound 0.3 µM, first compound 0.316 µM
[24] = second compound 0.3 µM, first compound 1 µM

Work on `C=CC(=O)N1CCN(c2nc(OCC3CCCN3C)nc3c(F)c(-c4nc(N)cc(C)c4C(F)(F)F)c(Cl)cc23)C(C)C1` (stereo unspecified) + CCn1c(-c2cc(N3CCN(C)CC3)cnc2C(C)OC)c2c3cc(ccc31)-c1csc(n1)CC(NC(=O)C1CC1C)C(=O)N1CCCC(N1)C(=O)OCC(C)(C)C2 yielded an IC50 (second compound 0.000949 µM) greater than 1 µM, an IC50 (second compound 0.003 µM) greater than 1 µM and an IC50 (second compound 0.00949 µM) greater than 1 µM. For the same molecule, the IC50 (second compound 0.03 µM) was greater than 1 µM, the IC50 (second compound 0.0949 µM) was less than 0.00316 µM and the IC50 (second compound 0.3 µM) was less than 0.00316 µM. It also gave a viability, T/C (second compound 0.000949 µM, first compound 0.00316 µM) of 98.6%, a viability, T/C (second compound 0.000949 µM, first compound 0.01 µM) of 92.4% and a viability, T/C [1] of 102%. For the same molecule, the viability, T/C [2] was 96.4%, the viability, T/C [3] was 101% and the viability, T/C [4] was 107%. For the same molecule, the viability, T/C (second compound 0.003 µM, first compound 0.00316 µM) was 89.5%, the viability, T/C (second compound 0.003 µM, first compound 0.01 µM) was 97.1% and the viability, T/C [5] was 97.5%. The viability, T/C [6] was 96.6%, the viability, T/C [7] was 101% and the viability, T/C [8] was 97.2%. It also gave a viability, T/C (second compound 0.00949 µM, first compound 0.00316 µM) of 109%, a viability, T/C (second compound 0.00949 µM, first compound 0.01 µM) of 115% and a viability, T/C [9] of 116%. It also gave a viability, T/C [10] of 114%, a viability, T/C [11] of 114% and a viability, T/C [12] of 116%. It also gave a viability, T/C (second compound 0.03 µM, first compound 0.00316 µM) of 69.4%, a viability, T/C (second compound 0.03 µM, first compound 0.01 µM) of 70.8% and a viability, T/C [13] of 78.2%. The viability, T/C [14] was 91%, the viability, T/C [15] was 89.7% and the viability, T/C [16] was 65.1%. It also gave a viability, T/C (second compound 0.0949 µM, first compound 0.00316 µM) of 8.79%, a viability, T/C (second compound 0.0949 µM, first compound 0.01 µM) of 7.92% and a viability, T/C [17] of 7.39%. It also gave a viability, T/C [18] of 10.4%, a viability, T/C [19] of 12.4% and a viability, T/C [20] of 8.5%. It also gave a viability, T/C (second compound 0.3 µM, first compound 0.00316 µM) of 4.59%, a viability, T/C (second compound 0.3 µM, first compound 0.01 µM) of 4.22% and a viability, T/C [21] of 3.75%. It also gave a viability, T/C [22] of 4.24%, a viability, T/C [23] of 4.79% and a viability, T/C [24] of 3.26%.
`C[C@@H](NC(=O)c1ncnc(N)c1Cl)c1ncc(C(=O)Nc2cc(C(F)(F)F)c(Cl)cn2)s1` + C#Cc1c(F)ccc2cc(O)cc(-c3ncc4c(N5CC6CCC(C5)N6)nc(OCC56CCCN5CC(F)C6)nc4c3F)c12 gave an IC50 (second compound 0.0316 µM) greater than 10 µM, an IC50 (second compound 0.1 µM) greater than 10 µM and an IC50 (second compound 0.316 µM) greater than 10 µM. The IC50 (second compound 1 µM) was greater than 10 µM, the IC50 (second compound 3.16 µM) was greater than 10 µM and the IC50 (second compound 10 µM) was greater than 10 µM. For the same molecule, the viability, T/C (second compound 0.0316 µM, first compound 0.0316 µM) was 91.7%, the viability, T/C (second compound 0.0316 µM, first compound 0.1 µM) was 89% and the viability, T/C (second compound 0.0316 µM, first compound 0.316 µM) was 93.6%. The viability, T/C (second compound 0.0316 µM, first compound 1 µM) was 79.9%, the viability, T/C (second compound 0.0316 µM, first compound 3.16 µM) was 92.2% and the viability, T/C (second compound 0.0316 µM, first compound 10 µM) was 108%. It also gave a viability, T/C (second compound 0.1 µM, first compound 0.0316 µM) of 96.2%, a viability, T/C (second compound 0.1 µM, first compound 0.1 µM) of 88.3% and a viability, T/C (second compound 0.1 µM, first compound 0.316 µM) of 89.4%. For the same molecule, the viability, T/C (second compound 0.1 µM, first compound 1 µM) was 80.7%, the viability, T/C (second compound 0.1 µM, first compound 3.16 µM) was 95.1% and the viability, T/C (second compound 0.1 µM, first compound 10 µM) was 110%. For the same molecule, the viability, T/C (second compound 0.316 µM, first compound 0.0316 µM) was 95.3%, the viability, T/C (second compound 0.316 µM, first compound 0.1 µM) was 94% and the viability, T/C (second compound 0.316 µM, first compound 0.316 µM) was 91.5%. For the same molecule, the viability, T/C (second compound 0.316 µM, first compound 1 µM) was 85.9%, the viability, T/C (second compound 0.316 µM, first compound 3.16 µM) was 96.4% and the viability, T/C (second compound 0.316 µM, first compound 10 µM) was 106%. For the same molecule, the viability, T/C (second compound 1 µM, first compound 0.0316 µM) was 94.9%, the viability, T/C (second compound 1 µM, first compound 0.1 µM) was 91.2% and the viability, T/C (second compound 1 µM, first compound 0.316 µM) was 94.8%. The viability, T/C (second compound 1 µM, first compound 1 µM) was 84.3%, the viability, T/C (second compound 1 µM, first compound 3.16 µM) was 84.1% and the viability, T/C (second compound 1 µM, first compound 10 µM) was 109%. It also gave a viability, T/C (second compound 3.16 µM, first compound 0.0316 µM) of 89.4%, a viability, T/C (second compound 3.16 µM, first compound 0.1 µM) of 94.9% and a viability, T/C (second compound 3.16 µM, first compound 0.316 µM) of 82.6%. The viability, T/C (second compound 3.16 µM, first compound 1 µM) was 90.7%, the viability, T/C (second compound 3.16 µM, first compound 3.16 µM) was 89.8% and the viability, T/C (second compound 3.16 µM, first compound 10 µM) was 111%. It also gave a viability, T/C (second compound 10 µM, first compound 0.0316 µM) of 77.3%, a viability, T/C (second compound 10 µM, first compound 0.1 µM) of 59.4% and a viability, T/C (second compound 10 µM, first compound 0.316 µM) of 79.2%. For the same molecule, the viability, T/C (second compound 10 µM, first compound 1 µM) was 74.1%, the viability, T/C (second compound 10 µM, first compound 3.16 µM) was 92.1% and the viability, T/C (second compound 10 µM, first compound 10 µM) was 101%.
Work on `Cc1nc(N2CCC3(CC2)COC(C)C3N)c(CO)nc1Sc1ccnc(N)c1Cl` (stereo unspecified) + CCn1c(-c2cc(N3CCN(C)CC3)cnc2C(C)OC)c2c3cc(ccc31)-c1csc(n1)CC(NC(=O)C1CC1C)C(=O)N1CCCC(N1)C(=O)OCC(C)(C)C2 yielded an IC50 (second compound 0.000949 µM) greater than 10 µM, an IC50 (second compound 0.003 µM) greater than 10 µM and an IC50 (second compound 0.00949 µM) greater than 10 µM. The IC50 (second compound 0.03 µM) was less than 0.0316 µM, the IC50 (second compound 0.0949 µM) was less than 0.0316 µM and the IC50 (second compound 0.3 µM) was less than 0.0316 µM. For the same molecule, the viability, T/C [1] was 104%, the viability, T/C [2] was 96.9% and the viability, T/C [3] was 108%. It also gave a viability, T/C [4] of 105%, a viability, T/C (second compound 0.000949 µM, first compound 3.16 µM) of 113% and a viability, T/C (second compound 0.000949 µM, first compound 10 µM) of 108%. It also gave a viability, T/C [5] of 101%, a viability, T/C [6] of 102% and a viability, T/C [7] of 104%. It also gave a viability, T/C [8] of 107%, a viability, T/C (second compound 0.003 µM, first compound 3.16 µM) of 110% and a viability, T/C (second compound 0.003 µM, first compound 10 µM) of 107%. It also gave a viability, T/C [9] of 118%, a viability, T/C [10] of 123% and a viability, T/C [11] of 118%. For the same molecule, the viability, T/C [12] was 124%, the viability, T/C (second compound 0.00949 µM, first compound 3.16 µM) was 88.4% and the viability, T/C (second compound 0.00949 µM, first compound 10 µM) was 119%. It also gave a viability, T/C [13] of 31.8%, a viability, T/C [14] of 25.4% and a viability, T/C [15] of 27.2%. For the same molecule, the viability, T/C [16] was 27.8%, the viability, T/C (second compound 0.03 µM, first compound 3.16 µM) was 24.9% and the viability, T/C (second compound 0.03 µM, first compound 10 µM) was 19.7%. It also gave a viability, T/C [17] of 6.44%, a viability, T/C [18] of 6.29% and a viability, T/C [19] of 4.23%. For the same molecule, the viability, T/C [20] was 5.24%, the viability, T/C (second compound 0.0949 µM, first compound 3.16 µM) was 4.2% and the viability, T/C (second compound 0.0949 µM, first compound 10 µM) was 2.67%. It also gave a viability, T/C [21] of 4.38%, a viability, T/C [22] of 3.24% and a viability, T/C [23] of 2.87%. It also gave a viability, T/C [24] of 3.05%, a viability, T/C (second compound 0.3 µM, first compound 3.16 µM) of 2.74% and a viability, T/C (second compound 0.3 µM, first compound 10 µM) of 1.82%.
